Source: the supplement of paper PMC13380429

Key:
Conditions in all cases: 72 h
Caco-2 [1] = experiment: cell viability relative to DMSO; higher = less toxic
Calu-3 [2] = experiment: as above
HepG2 [3] = experiment: as above
U2OS [4] = experiment: as above
Vero E6 [5] = experiment: as above
Caco-2 [6] = experiment: relative viability EC50 (midpoint between 100% and the lowest measured viability); higher = less toxic
Calu-3 [7] = experiment: as above
HepG2 [8] = experiment: as above
U2OS [9] = experiment: as above
Vero E6 [10] = experiment: as above
Caco-2 [11] = experiment: drug sensitivity score (DSS) for viability; higher = more toxic; extreme values may be limits of the assay
Calu-3 [12] = experiment: as above
HepG2 [13] = experiment: as above
U2OS [14] = experiment: as above
Vero E6 [15] = experiment: as above

Row | SMILES | cell viability (Caco-2 [1]; 1 nM) | cell viability (Caco-2 [1]; 10 nM) | cell viability (Caco-2 [1]; 100 nM) | cell viability (Caco-2 [1]; 1000 nM) | cell viability (Caco-2 [1]; 10000 nM) | cell viability (Calu-3 [2]; 1 nM) | cell viability (Calu-3 [2]; 10 nM) | cell viability (Calu-3 [2]; 100 nM) | cell viability (Calu-3 [2]; 1000 nM) | cell viability (Calu-3 [2]; 10000 nM) | cell viability (HepG2 [3]; 1 nM) | cell viability (HepG2 [3]; 10 nM) | cell viability (HepG2 [3]; 100 nM) | cell viability (HepG2 [3]; 1000 nM) | cell viability (HepG2 [3]; 10000 nM) | cell viability (U2OS [4]; 1 nM) | cell viability (U2OS [4]; 10 nM) | cell viability (U2OS [4]; 100 nM) | cell viability (U2OS [4]; 1000 nM) | cell viability (U2OS [4]; 10000 nM) | cell viability (Vero E6 [5]; 1 nM) | cell viability (Vero E6 [5]; 10 nM) | cell viability (Vero E6 [5]; 100 nM) | cell viability (Vero E6 [5]; 1000 nM) | cell viability (Vero E6 [5]; 10000 nM) | relative viability EC50 (Caco-2 [6]) | relative viability EC50 (Calu-3 [7]) | relative viability EC50 (HepG2 [8]) | relative viability EC50 (U2OS [9]) | relative viability EC50 (Vero E6 [10]) | drug sensitivity score (Caco-2 [11]) | drug sensitivity score (Calu-3 [12]) | drug sensitivity score (HepG2 [13]) | drug sensitivity score (U2OS [14]) | drug sensitivity score (Vero E6 [15])
1 | C[C@@H]1c2ccccc2CN1CC1=NCCN1 (racemic) | 100% | 92.4% | 89.9% | 100% | 121% | 107% | 96.5% | 102% | 108% | 114% | 100% | 86.9% | 109% | 116% | 116% | 97.4% | 94.8% | 101% | 96.3% | 104% | 95.9% | 97.8% | 95.4% | 92.9% | 102% | > 10 µM | > 10 µM | > 10 µM | > 10 µM | > 10 µM | 0 | 0 | 0 | 0 | 0
2 | O=C(NCc1ccc(F)cc1)N1CCN2C(=O)OC(c3ccccc3)(c3ccccc3)[C@@H]2C1 (racemic) [SHA-68] | 101% | 101% | 89.1% | 93.6% | 85% | 99.7% | 110% | 104% | 100% | 97.2% | 100% | 102% | 98% | 107% | 110% | 101% | 95.6% | 100% | 96.6% | 96.8% | 97.1% | 96.8% | 98.3% | 102% | 100% | > 10 µM | > 10 µM | > 10 µM | > 10 µM | > 10 µM | 0.5 | 0 | 0 | 0 | 0
3 | CCS(=O)(=O)N(C)[C@@H]1c2cc(C#N)ccc2OC(C)(C)[C@H]1O.CCS(=O)(=O)N(C)[C@H]1c2cc(C#N)ccc2OC(C)(C)[C@@H]1O (racemic) [chromanol-(+/-)] | 90.9% | 89.9% | 100% | 106% | 93.5% | 103% | 99.8% | 92.5% | 102% | 97.5% | 106% | 105% | 100% | 96.7% | 94.6% | 100% | 96.9% | 102% | 96.2% | 102% | 101% | 102% | 101% | 103% | 95.6% | > 10 µM | > 10 µM | > 10 µM | > 10 µM | > 10 µM | 0 | 0 | 0 | 0 | 0
4 | Cc1ccc(Cl)c(OC[C@H](O)CNC(C)C)c1 [1-(2-chloro-5-methylphenoxy)-3-(isopropylamino)-2-propanol] | 95.1% | 101% | 99.1% | 91.1% | 94.8% | 96.6% | 101% | 103% | 108% | 102% | 93.5% | 100% | 108% | 104% | 103% | 104% | 97.2% | 101% | 106% | 101% | 104% | 103% | 95.9% | 104% | 92.8% | > 10 µM | > 10 µM | > 10 µM | > 10 µM | > 10 µM | 0 | 0 | 0 | 0 | 0
5 | CC(=O)N1CCN(C)CC1 [1-acetyl-4-methylpiperazine] | 100% | 93.6% | 101% | 95.7% | 97.3% | 89.8% | 86.6% | 95% | 100% | 93.8% | 104% | 111% | 101% | 99.5% | 100% | 103% | 99.1% | 96.2% | 99.8% | 102% | 105% | 104% | 104% | 98.2% | 95.9% | > 10 µM | > 10 µM | > 10 µM | > 10 µM | > 10 µM | 0 | 0 | 0 | 0 | 0
6 | COc1ccc2[nH]c(I)c(CCNC(C)=O)c2c1 [2-iodomelatonin] | 98.5% | 106% | 94.6% | 104% | 96.2% | 99.5% | 100% | 103% | 92.7% | 94.8% | 105% | 98.6% | 113% | 96.5% | 105% | 95.3% | 103% | 94.9% | 97.9% | 102% | 94.6% | 93.1% | 92.4% | 94.9% | 108% | > 10 µM | > 10 µM | > 10 µM | > 10 µM | > 10 µM | 0 | 0 | 0 | 0 | 0
7 | c1ccc([C@H]2CNCc3ccccc32)cc1 [4-phenyl-1,2,3,4-tetrahydroisoquinoline] | 98.1% | 109% | 97.3% | 103% | 103% | 101% | 109% | 92.3% | 102% | 105% | 101% | 91.7% | 103% | 104% | 96.7% | 99.9% | 101% | 94.1% | 94.9% | 100% | 96.7% | 99.4% | 100% | 99.6% | 98.8% | > 10 µM | > 10 µM | > 10 µM | > 10 µM | > 10 µM | 0 | 0 | 0 | 0 | 0
8 | CC(C)N(CC[C@H](c1ccccc1)c1cc(CO)ccc1O)C(C)C [5-hydroxymethyl-tolterodine] | 89% | 87.9% | 108% | 102% | 99.6% | 104% | 89.3% | 96.7% | 98.6% | 99.3% | 104% | 91.6% | 102% | 96.5% | 112% | 101% | 99.1% | 105% | 91.8% | 95.9% | 95.7% | 96.2% | 96.6% | 98.2% | 101% | > 10 µM | > 10 µM | > 10 µM | > 10 µM | > 10 µM | 0 | 0 | 0 | 0 | 0
9 | COc1cc(N2CCC(N)CC2)ccc1Nc1ncc(Cl)c(-c2c[nH]c3ccccc23)n1 [AZD3463] | 103% | 98.2% | 99.6% | 64.3% | 34.9% | 97.2% | 88.9% | 95.1% | 81.8% | 9.4% | 102% | 102% | 78.1% | 41.6% | 12.7% | 93.5% | 101% | 95.1% | 69.2% | 2.6% | 104% | 100% | 102% | 87.1% | 4.5% | 0.923 µM | 1.73 µM | 0.402 µM | 1.39 µM | 2.08 µM | 8 | 8 | 13.6 | 9.6 | 7.4
10 | O=C(O)C[C@H]1CC[C@H](c2ccc(NC(=O)c3nnc(Nc4ccc(F)c(F)c4)o3)cc2)CC1 [AZD3988] | 99% | 104% | 96.6% | 100% | 87.9% | 104% | 104% | 97.6% | 108% | 100% | 110% | 105% | 103% | 93% | 102% | 99.7% | 98.8% | 97.2% | 103% | 94.7% | 97.9% | 97.4% | 95.2% | 95.3% | 101% | > 10 µM | > 10 µM | > 10 µM | > 10 µM | > 10 µM | 0 | 0 | 0 | 0 | 0
11 | N[C@@H](C[C@@H](F)C(=O)O)C(=O)O [BAY-85-8050] | 91.1% | 105% | 97.8% | 100% | 110% | 90.2% | 94.7% | 90.6% | 86.2% | 98.5% | 96.2% | 98.7% | 109% | 95.6% | 99.7% | 93.5% | 99.6% | 96.7% | 100% | 106% | 93.6% | 93.8% | 102% | 95.7% | 100% | > 10 µM | > 10 µM | > 10 µM | > 10 µM | > 10 µM | 0 | 0 | 0 | 0 | 0
12 | COC(=O)c1ccc2c(c1)nc(NC(=O)c1ccccc1)n2CCCc1ccccc1 [BRD4770] | 98% | 103% | 94.1% | 91.9% | 80% | 107% | 96.6% | 97.4% | 93.6% | 95.5% | 109% | 97.2% | 99.9% | 94.3% | 77% | 97.9% | 98.6% | 98.2% | 99.3% | 88.3% | 103% | 97.4% | 98% | 96.6% | 90.1% | > 10 µM | > 10 µM | > 10 µM | > 10 µM | > 10 µM | 1 | 0 | 1.6 | 0.1 | 0
